From ChEMBL document CHEMBL3885881, “DrugMatrix”

Species: Rattus norvegicus
Experiment: DrugMatrix - Regimen: Daily Repeat
Type: toxicity, organism-based, Sprague-Dawley
Set-up: regimen Daily Repeat, gender Male, age 6-8 weeks
Details: in vivo, po, route oral GAVAGE, vehicle .5 % CMC; for ALANINE AMINOTRANSFERASE / ALBUMIN / ALKALINE PHOSPHATASE / ASPARTATE AMINOTRANSFERASE / BLOOD UREA NITROGEN / CHLORIDE / CHOLESTEROL / CREATINE PHOSPHOKINASE / CREATININE / GLUCOSE / LACTATE DEHYDROGENASE / LIPASE / PHOSPHORUS / POTASSIUM / SODIUM / TOTAL BILIRUBIN / TOTAL PROTEIN / URIC ACID: tissue Plasma
[1] = 80 mg/kg, 2184 h, tissue Blood, dose level Low, time 91 day
[2] = 80 mg/kg, 2184 h, dose level Low, time 91 day
[3] = 80 mg/kg, […], tissue Blood, dose level Low, time 28 day
[4] = 80 mg/kg, […], dose level Low, time 28 day
[5] = 150 mg/kg, 72 h, tissue Blood, dose level M1, time 3 day
[6] = 150 mg/kg, 72 h, dose level M1, time 3 day
[7] = 150 mg/kg, 120 h, tissue Blood, dose level M1, time 5 day
[8] = 150 mg/kg, 120 h, dose level M1, time 5 day
[9] = 1500 mg/kg, 72 h, tissue Blood, dose level High, time 3 day
[10] = 1500 mg/kg, 72 h, dose level High, time 3 day
[11] = 1500 mg/kg, 120 h, tissue Blood, dose level High, time 5 day
[12] = 1500 mg/kg, 120 h, dose level High, time 5 day

O=c1cc(-c2ccccc2)oc2ccc3ccccc3c12 [BETA-NAPHTHOFLAVONE]
EOSINOPHIL [1]: 0.76% | ERYTHROCYTE COUNT [1]: 8.94 x10E6/uL | HEMATOCRIT [1]: 47.57% | HEMOGLOBIN [1]: 15.76 G/DL | LEUKOCYTE COUNT [1]: 15.13 x10E3/uL | LYMPHOCYTE [1]: 74.26% | MEAN CORPUSCULAR HEMOGLOBIN [1]: 17.63 pg | MEAN CORPUSCULAR HEMOGLOBIN CONCENTRATION [1]: 33.13 G/DL | MEAN CORPUSCULAR VOLUME [1]: 53.23 fL | MONOCYTE [1]: 1.9% | NEUTROPHIL [1]: 20.01% | PLATELET COUNT [1]: 1247.3 x10E3/uL | ALANINE AMINOTRANSFERASE [2]: 27.5 u/L | ALBUMIN [2]: 3.68 G/DL | ALKALINE PHOSPHATASE [2]: 82.2 u/L | ASPARTATE AMINOTRANSFERASE [2]: 64.9 u/L | BLOOD UREA NITROGEN [2]: 15.3 mg/dL | CHLORIDE [2]: 104 MEQ/L | CHOLESTEROL [2]: 68.4 mg/dL | CREATINE PHOSPHOKINASE [2]: 81.3 u/L | CREATININE [2]: 0.51 mg/dL | GLUCOSE [2]: 148 mg/dL | LACTATE DEHYDROGENASE [2]: 43.4 u/L | LIPASE [2]: 20.6 u/L | PHOSPHORUS [2]: 8.24 mg/dL | POTASSIUM [2]: 6.5 MEQ/L | SODIUM [2]: 150 MEQ/L | TOTAL BILIRUBIN [2]: 0.21 mg/dL | TOTAL PROTEIN [2]: 7.08 G/DL | URIC ACID [2]: 0.93 mg/dL | ABSOLUTE BASOPHIL [3]: 190 cells/µL | ABSOLUTE EOSINOPHIL [3]: 60 cells/µL | ABSOLUTE LYMPHOCYTE [3]: 13200 cells/µL | ABSOLUTE MONOCYTE [3]: 300 cells/µL | ABSOLUTE SEGMENTED NEUTROPHIL [3]: 1910 cells/µL | BASOPHIL [3]: 1.18% | EOSINOPHIL [3]: 0.36% | ERYTHROCYTE COUNT [3]: 8.59 x10E6/uL | HEMATOCRIT [3]: 48.64% | HEMOGLOBIN [3]: 16.08 G/DL | LEUKOCYTE COUNT [3]: 15.78 x10E3/uL | LYMPHOCYTE [3]: 83.98% | MEAN CORPUSCULAR HEMOGLOBIN [3]: 18.78 pg | MEAN CORPUSCULAR HEMOGLOBIN CONCENTRATION [3]: 33.1 G/DL | MEAN CORPUSCULAR VOLUME [3]: 56.7 fL | MONOCYTE [3]: 1.92% | NEUTROPHIL [3]: 12% | PLATELET COUNT [3]: 1252.8 x10E3/uL | ALANINE AMINOTRANSFERASE [4]: 30.4 u/L | ALBUMIN [4]: 3.64 G/DL | ALKALINE PHOSPHATASE [4]: 126 u/L | ASPARTATE AMINOTRANSFERASE [4]: 71.4 u/L | BLOOD UREA NITROGEN [4]: 13.4 mg/dL | CHLORIDE [4]: 103.4 MEQ/L | CHOLESTEROL [4]: 69.8 mg/dL | CREATINE PHOSPHOKINASE [4]: 116.2 u/L | CREATININE [4]: 0.48 mg/dL | GLUCOSE [4]: 156.6 mg/dL | LACTATE DEHYDROGENASE [4]: 80.8 u/L | LIPASE [4]: 13 u/L | PHOSPHORUS [4]: 9.74 mg/dL | POTASSIUM [4]: 6.34 MEQ/L | SODIUM [4]: 149.8 MEQ/L | TOTAL BILIRUBIN [4]: 0.24 mg/dL | TOTAL PROTEIN [4]: 6.58 G/DL | URIC ACID [4]: 0.58 mg/dL | BASOPHIL [5]: 0.43% | EOSINOPHIL [5]: 0.3% | ERYTHROCYTE COUNT [5]: 6.69 x10E6/uL | HEMATOCRIT [5]: 42.2% | HEMOGLOBIN [5]: 13.2 G/DL | LEUKOCYTE COUNT [5]: 11.3 x10E3/uL | LYMPHOCYTE [5]: 85.87% | MEAN CORPUSCULAR HEMOGLOBIN [5]: 19.73 pg | MEAN CORPUSCULAR HEMOGLOBIN CONCENTRATION [5]: 31.23 G/DL | MEAN CORPUSCULAR VOLUME [5]: 63.13 fL | MONOCYTE [5]: 2.17% | NEUTROPHIL [5]: 10.17% | PLATELET COUNT [5]: 1377.33 x10E3/uL | ALANINE AMINOTRANSFERASE [6]: 41.33 u/L | ALBUMIN [6]: 3.57 G/DL | ALKALINE PHOSPHATASE [6]: 337.33 u/L | ASPARTATE AMINOTRANSFERASE [6]: 68.33 u/L | BLOOD UREA NITROGEN [6]: 13 mg/dL | CHLORIDE [6]: 103.33 MEQ/L | CHOLESTEROL [6]: 100 mg/dL | CREATINE PHOSPHOKINASE [6]: 163.67 u/L | CREATININE [6]: 0.4 mg/dL | GLUCOSE [6]: 179 mg/dL | PHOSPHORUS [6]: 12.8 mg/dL | POTASSIUM [6]: 6.93 MEQ/L | SODIUM [6]: 148.33 MEQ/L | TOTAL BILIRUBIN [6]: 0.4 mg/dL | TOTAL PROTEIN [6]: 5.97 G/DL | BASOPHIL [7]: 0.37% | EOSINOPHIL [7]: 0.43% | ERYTHROCYTE COUNT [7]: 7.05 x10E6/uL | HEMATOCRIT [7]: 42.83% | HEMOGLOBIN [7]: 13.57 G/DL | LEUKOCYTE COUNT [7]: 14.17 x10E3/uL | LYMPHOCYTE [7]: 88.67% | MEAN CORPUSCULAR HEMOGLOBIN [7]: 19.27 pg | MEAN CORPUSCULAR HEMOGLOBIN CONCENTRATION [7]: 31.67 G/DL | MEAN CORPUSCULAR VOLUME [7]: 60.87 fL | MONOCYTE [7]: 1.77% | NEUTROPHIL [7]: 7.87% | PLATELET COUNT [7]: 1364.33 x10E3/uL | ALANINE AMINOTRANSFERASE [8]: 42.67 u/L | ALBUMIN [8]: 3.6 G/DL | ALKALINE PHOSPHATASE [8]: 295 u/L | ASPARTATE AMINOTRANSFERASE [8]: 69.33 u/L | BLOOD UREA NITROGEN [8]: 14 mg/dL | CHLORIDE [8]: 104 MEQ/L | CHOLESTEROL [8]: 99 mg/dL | CREATINE PHOSPHOKINASE [8]: 224.33 u/L | CREATININE [8]: 0.47 mg/dL | GLUCOSE [8]: 169 mg/dL | PHOSPHORUS [8]: 12.43 mg/dL | POTASSIUM [8]: 6.6 MEQ/L | SODIUM [8]: 147 MEQ/L | TOTAL BILIRUBIN [8]: 0.57 mg/dL | TOTAL PROTEIN [8]: 6 G/DL | BASOPHIL [9]: 0.4% | EOSINOPHIL [9]: 0.7% | ERYTHROCYTE COUNT [9]: 7.11 x10E6/uL | HEMATOCRIT [9]: 44.17% | HEMOGLOBIN [9]: 13.9 G/DL | LEUKOCYTE COUNT [9]: 12.26 x10E3/uL | LYMPHOCYTE [9]: 82.2% | MEAN CORPUSCULAR HEMOGLOBIN [9]: 19.53 pg | MEAN CORPUSCULAR HEMOGLOBIN CONCENTRATION [9]: 31.47 G/DL | MEAN CORPUSCULAR VOLUME [9]: 62.13 fL | MONOCYTE [9]: 2.5% | NEUTROPHIL [9]: 13.1% | PLATELET COUNT [9]: 1171.33 x10E3/uL | ALANINE AMINOTRANSFERASE [10]: 37 u/L | ALBUMIN [10]: 3.53 G/DL | ALKALINE PHOSPHATASE [10]: 263.67 u/L | ASPARTATE AMINOTRANSFERASE [10]: 61.67 u/L | BLOOD UREA NITROGEN [10]: 11.67 mg/dL | CHLORIDE [10]: 103.33 MEQ/L | CHOLESTEROL [10]: 122.33 mg/dL | CREATINE PHOSPHOKINASE [10]: 219.67 u/L | CREATININE [10]: 0.4 mg/dL | GLUCOSE [10]: 175.67 mg/dL | PHOSPHORUS [10]: 13.27 mg/dL | POTASSIUM [10]: 7 MEQ/L | SODIUM [10]: 145.33 MEQ/L | TOTAL BILIRUBIN [10]: 0.47 mg/dL | TOTAL PROTEIN [10]: 5.9 G/DL | BASOPHIL [11]: 0.43% | EOSINOPHIL [11]: 0.17% | ERYTHROCYTE COUNT [11]: 6.8 x10E6/uL | HEMATOCRIT [11]: 42.73% | HEMOGLOBIN [11]: 13.33 G/DL | LEUKOCYTE COUNT [11]: 11.39 x10E3/uL | LYMPHOCYTE [11]: 85.5% | MEAN CORPUSCULAR HEMOGLOBIN [11]: 19.63 pg | MEAN CORPUSCULAR HEMOGLOBIN CONCENTRATION [11]: 31.3 G/DL | MEAN CORPUSCULAR VOLUME [11]: 62.77 fL | MONOCYTE [11]: 1.77% | NEUTROPHIL [11]: 11.33% | PLATELET COUNT [11]: 1352 x10E3/uL | ALANINE AMINOTRANSFERASE [12]: 37.67 u/L | ALBUMIN [12]: 3.6 G/DL | ALKALINE PHOSPHATASE [12]: 289 u/L | ASPARTATE AMINOTRANSFERASE [12]: 66.67 u/L | BLOOD UREA NITROGEN [12]: 12.67 mg/dL | CHLORIDE [12]: 102.33 MEQ/L | CHOLESTEROL [12]: 101.33 mg/dL | CREATINE PHOSPHOKINASE [12]: 145 u/L | CREATININE [12]: 0.33 mg/dL | GLUCOSE [12]: 186 mg/dL | PHOSPHORUS [12]: 13.3 mg/dL | POTASSIUM [12]: 6.73 MEQ/L | SODIUM [12]: 147.67 MEQ/L | TOTAL BILIRUBIN [12]: 0.27 mg/dL | TOTAL PROTEIN [12]: 6.1 G/DL
